{"source": "patent US20250249025A1", "about": "“DRUG DELIVERY CARRIER UTILIZING PROPERTY OF D-ALLOSE BEING UPTAKEN BY CANCER CELL, DRUG DELIVERY METHOD, AND COMPOSITION FOR TREATING RENAL CELL CARCINOMA” (NATIONAL UNIVERSITY CORPORATION KAGAWA UNIVERSITY, priority 2019, published 2025)", "key": {"[1]": {"system": "human prostate carcinoma cell line PC-3", "assay": "Rare sugar uptake experiment, sugar content in disrupted cell suspension of PC-3", "format": "cell-based", "protocol": "(§1) An uptake amount of a rare sugar, which had been added to a medium, into carcinoma cells was analyzed using the cell lines of three types of cancers. As the rare sugar, four kinds, that is, D-allose, D-allulose (D-psicose), L-allulose (L-psicose), and allitol were used, while D-glucose and fructose were used as a monosaccharide which was not a rare sugar.\n(§2) Cells of each of the cell lines were cultured in RPMI-1640 media and during culturing, six sugars were each added to the resulting media and cultured. After culturing, an amount of each sugar taken up into the cells was analyzed. The medium to which no sugar was added during culturing was used as a control.\n(§3) Used were human bladder carcinoma cell lines (RT112, 253), and J82), human prostatic carcinoma cell lines (LNCa, Du145, and PC-3), and human renal cell carcinoma cell lines (ACHN, Caki-I, and Caki-II).\n(§4) After cells were cultured in RPMI-1640 (2000 mg D-glucose/L) media, the above monosaccharides and rare sugars were added to the resulting media, respectively. Described specifically, they were following seven combinations: RPMI-1640 alone (control), RPMI-1640+D-glucose, RPMI-1640+L-allulose, RPMI-1640+D-allulose, RPMI-1640+D-fructose, RPMI-1640+D-allose, and RPMI-1640+D-allitol. The final concentration of the sugar in the medium was adjusted to 10 mM and no sugar was added in the control.\n(§5) Five-ml portions of a 3.0×10^4 cells/ml cell suspension prepared using RPMI-1640 were seeded in dishes having a diameter of 6 cm (1.5×10^5 cells/dish) and cultured for 24 hours in the RPMI-1640 medium containing 2000 mg/l of D-glucose as a nutrient source. Twenty-four hours later, the media were changed to the culture solutions containing the monosaccharides and rare sugars described above in 2), respectively, followed by culturing for 48 hours.\n(§6) After culturing for 48 hours, the attached human carcinoma cells were mechanically separated and collected in a Spitz tube together with the culture solution and floating cells. After the supernatant formed by centrifugation (4° C., 1200 rpm, and 5 minutes) was removed to obtain cell pellets alone, 5 ml of a phosphate buffer physiological saline (PBS) was added for the purpose of washing to obtain a cell suspension of the cell pellets. A gain, the resulting cell suspension was centrifuged at 4° C. and 1200 rpm for 5 minutes and the supernatant was removed. To the cell pellets after washing was added 1 ml of pure water to suspend them therein. Ultrasonic disruption (intensity: 40%, 30 seconds) was then performed and the monosaccharide in the disrupted cell suspension was labeled with ABEE, followed by analysis by HPLC. From the area thus obtained, the sugar content in the cells was determined using a calibration curve. With respect to the ketose, two peaks were found after labeling with ABEE so that the sugar content in the cells was determined from the calibration curves of both peaks."}, "[2]": {"system": "human renal cell carcinoma cell line Caki-II", "assay": "Rare sugar uptake experiment, sugar content in disrupted cell suspension of Caki-II", "format": "cell-based", "protocol": "as §1, §2, §3, §4, §5, §6"}, "[3]": {"system": "renal cell carcinoma cell line (Caki-I)", "assay": "Cell survival assay (MTT assay), Caki-I", "format": "cell-based, human", "details": "10 mM, 25 mM and 50 mM in MEM, 24 hours, compared with Control (p<0.05), FIG. 2", "protocol": "The antitumor effect of rare sugars was analyzed using the three human renal cell carcinoma cell lines (ACHN, Caki-I, and Caki-II) used in Example 1. As the rare sugars, used were the following ten rare sugars: L-allulose, D-allulose, D-allose, L-fructose, D-mannose, L-sorbose, D-tagatose, D-galactose, D-sorbose, and L-tagatose, while as monosaccharides not belonging to rare sugars, D-glucose and D-fructose were used.\nAs a medium, a minimum essential medium (MEM) containing 1000 mg/l of D-glucose was used. By adjusting it to contain 10 mM, 25 mM, and 50 mM of each of the monosaccharides or rare sugars and using thus-obtained MEMs [shown by (10), (25), and (50) in the drawing], an antitumor effect of the rare sugars was evaluated.\nA 5.0×10^4 cells/ml of each of cell suspensions was formed using MEM. The resulting suspension (0.1 ml/well) was distributed in a 96-well plate, followed by culturing for 24 hours. […]\nThe MTT assay is one of test methods for measuring survival and makes use of a color reaction of an insoluble formazan dye (blue) caused by the reduction of MTT which is a tetrazolium salt. […] The cell viability is determined by measuring this color reaction with a microplate reader."}}, "data": [{"molecule": "O=C[C@H](O)[C@H](O)[C@H](O)[C@H](O)CO", "note": "[D-allose]", "values": [{"measurement": "D-glucose content in cell", "setting": "[1]; PC-3, named sugar added to RPMI-1640 at 10 mM, 48 hours, HPLC after ABEE labeling", "value": 3.8, "unit": "µg"}, {"measurement": "Content in cell of the added sugar", "setting": "[1]; human, 48 h, 10 mM", "value": 7.5, "unit": "µg"}, {"measurement": "D-glucose content in cell", "setting": "[2]; Caki-II, named sugar added to RPMI-1640 at 10 mM, 48 hours, HPLC after ABEE labeling", "value": 3.4, "unit": "µg"}, {"measurement": "Content in cell of the added sugar", "setting": "[2]; human, 48 h, 10 mM", "value": 11.2, "unit": "µg"}, {"measurement": "Viability", "setting": "[3]", "value": "significantly reduced the viability"}]}]}
